The source of these data is paper PMC7496286, “The Selectivity of Fosfosal for STAT5b over STAT5a is Mediated by Arg566 in the Linker Domain” (Chembiochem, 2020).

Experiment [1] concerns the target T1, STAT5a Trp566Arg (Homo sapiens, UniProt P42229, W566R).
T1 construct: His; made in house
T1 sequence (P42229 1-794 W566R): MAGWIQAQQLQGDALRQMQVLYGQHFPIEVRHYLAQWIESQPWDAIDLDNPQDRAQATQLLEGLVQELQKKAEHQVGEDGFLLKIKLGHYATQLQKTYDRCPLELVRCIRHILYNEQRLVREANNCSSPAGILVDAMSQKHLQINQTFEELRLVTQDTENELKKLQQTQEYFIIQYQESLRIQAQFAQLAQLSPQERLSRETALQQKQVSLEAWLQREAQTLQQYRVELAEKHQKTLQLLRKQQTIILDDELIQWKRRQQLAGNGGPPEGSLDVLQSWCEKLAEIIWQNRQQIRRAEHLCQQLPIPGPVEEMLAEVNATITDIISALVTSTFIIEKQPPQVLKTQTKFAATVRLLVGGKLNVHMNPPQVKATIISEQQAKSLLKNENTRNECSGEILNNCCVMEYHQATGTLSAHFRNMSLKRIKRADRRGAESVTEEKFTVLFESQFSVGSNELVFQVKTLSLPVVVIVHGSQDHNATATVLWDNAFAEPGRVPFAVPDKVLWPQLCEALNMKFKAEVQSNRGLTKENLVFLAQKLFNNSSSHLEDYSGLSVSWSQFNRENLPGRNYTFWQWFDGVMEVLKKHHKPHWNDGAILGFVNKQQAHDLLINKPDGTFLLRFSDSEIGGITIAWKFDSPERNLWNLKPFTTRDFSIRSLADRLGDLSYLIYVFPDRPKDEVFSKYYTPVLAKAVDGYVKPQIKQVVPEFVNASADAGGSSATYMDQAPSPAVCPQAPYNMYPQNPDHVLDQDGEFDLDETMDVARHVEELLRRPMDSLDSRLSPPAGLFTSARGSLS
In words: FP-based competitive binding assay, STAT5a Trp566Arg. As to the method: (§1) Fluorescence polarization assays
(§2) The ability of test compounds to displace 5-carboxyfluorescein-GY(PO3H2)LVLDKW (final concentration: 10 nM) from the SH2 domain of STAT5a/b proteins was analyzed. Proteins […]
(§3) was applied in dilution series comprising the following concentrations: 0.024 – 200 µM […]
(§4) and 0.146 – 600 µM (STAT5b Arg566Glu), respectively. The assays were performed in buffer containing 10 mM Tris, 50 mM NaCl, 1 mM DTT, 1 mM EDTA and 0.1% (v/v) NP-40. Fosfosal was dissolved in DMSO. STAT5a/b proteins and fosfosal were incubated at room temperature for 1 h before adding peptide. Samples were transferred to 384-well microtiter plates and fluorescence polarization was read after a further 1 h incubation time. All measurements were performed in triplicate (n=3), except for STAT5b (n=6) and STAT5a Trp566Arg (n=4). Percent binding was calculated based on a logarithmic curve fit using OriginPro 8G software. IC50 values were converted to Ki values using the published equation.[4] […]
(§5) [4] Z. Nikolovska-Coleska, R. Wang, X. Fang, H. Pan, Y. Tomita, P. Li, P. P. Roller, K.
(§6) Krajewski, N. G. Saito, J. A. Stuckey, S. Wang, Anal. Biochem. 2004, 332, 261-273.

In experiment [2] the target is T2, STAT5b-7M (Arg566Trp/Gln636Pro/Met639Asn/Phe640Leu/Met644Lys/Asn664Ser/Tyr679Phe) (Homo sapiens, UniProt P51692, F640L/M639N/M644K/N664S/Q636P/R566W/Y679F).
T2 construct: His; made in house
T2 sequence (P51692 1-787 R566W/Q636P/M639N/F640L/M644K/N664S/Y679F): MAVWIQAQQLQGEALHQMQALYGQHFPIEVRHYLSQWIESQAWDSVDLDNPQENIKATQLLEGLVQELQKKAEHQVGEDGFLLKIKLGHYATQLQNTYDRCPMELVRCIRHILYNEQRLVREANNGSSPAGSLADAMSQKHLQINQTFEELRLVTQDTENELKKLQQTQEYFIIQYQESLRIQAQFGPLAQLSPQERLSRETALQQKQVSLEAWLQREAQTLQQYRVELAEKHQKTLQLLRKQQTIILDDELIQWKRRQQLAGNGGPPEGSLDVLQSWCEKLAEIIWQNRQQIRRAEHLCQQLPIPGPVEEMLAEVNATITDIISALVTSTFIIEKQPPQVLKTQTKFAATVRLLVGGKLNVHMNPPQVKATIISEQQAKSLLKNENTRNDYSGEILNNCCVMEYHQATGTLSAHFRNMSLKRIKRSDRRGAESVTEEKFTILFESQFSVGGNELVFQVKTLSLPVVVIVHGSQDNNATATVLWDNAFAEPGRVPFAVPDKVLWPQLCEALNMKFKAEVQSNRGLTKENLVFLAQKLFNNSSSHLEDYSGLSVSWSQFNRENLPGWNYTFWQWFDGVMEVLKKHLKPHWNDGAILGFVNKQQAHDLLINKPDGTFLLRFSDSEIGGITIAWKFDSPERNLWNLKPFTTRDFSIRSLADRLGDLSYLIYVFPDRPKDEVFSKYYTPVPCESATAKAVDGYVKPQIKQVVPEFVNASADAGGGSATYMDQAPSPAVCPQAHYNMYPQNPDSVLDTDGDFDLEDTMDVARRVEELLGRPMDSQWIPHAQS
In words: FP-based competitive binding assay, STAT5b-7M. As to the method:
as §1, §2, §3, §4, §5, §6

SMILES strings stand for the structures.

Usually Kd stands for the concentration at which binding is half-saturated. Lower therefore signals higher affinity. `CC(C)C[C@H](NC(=O)[C@H](Cc1ccc(OP(=O)(O)O)cc1)NC(=O)CNC(=O)c1ccc2c(c1)C(=O)OC21c2ccc(O)cc2Oc2cc(O)ccc21)C(=O)N[C@H](C(=O)N[C@@H](CC(C)C)C(=O)N[C@@H](CC(=O)O)C(=O)N[C@@H](CCCCN)C(=O)N[C@@H](Cc1c[nH]c2ccccc12)C(=O)O)C(C)C` [5-carboxyfluorescein-GY(PO3H2)LVLDKW]: the dissociation constant Kd in experiment [1] was determined as 0.043 µM; in experiment [2] it was 0.246 µM.

Usually IC50 stands for the concentration that gives 50% inhibition. A lower IC50 goes with higher potency. As a reminder, the Ki is a measure of affinity in units of concentration, obtained from inhibition or displacement. In the case of `O=C(O)c1ccccc1OP(=O)(O)O` [fosfosal, O‐phosphorylated salicylic acid], the results for the half-inhibitory concentration (IC50) in experiment [1] (STAT5a Trp566Arg) and in experiment [2] (STAT5b-7M) were 21 ± 1.5 µM and 379 ± 7 µM, respectively. Moreover, the Ki in experiment [1] (STAT5a Trp566Arg, Ki calculated from IC50, n=4) is 10.2 ± 0.7 µM; in experiment [2] (STAT5b-7M, Ki calculated from IC50), 189 ± 3 µM. Moreover, in experiment [1] (ratio of Ki values), the “increase of activity against STAT5a Trp566Arg compared to wild type STAT5a” value is listed as 14 fold.
